The values that follow come from patent US11160817B2, “Nutritional compositions comprising neuroprotective dietary oligosaccharides” (ABBOTT LABORATORIES, priority 2012, dated 2021).

The subject of series [1] is fecal samples from formula-fed infants (intestinal flora). Briefly: Anaerobic fermentation of HMOs with fecal inocula of formula-fed infants, agmatine in supernatant by GC/MS and LC/MS/MS. To be noted: for Increase of agmatine, HMO/blank (relative ratio of agmatine compared to the blank): formula fed infants, fermentation culture 37° C. The series is classed as cell-based, human. How it is done: (§1) Fecal samples from eight human babies, one group of four breast-fed and the other group of four formula-fed, were used as inocula for anaerobic fermentation (37° C.) of lacto-N-neotetraose (LNnT) and 2′-fucosyllactose. Supernatants from the fermentation cultures were sampled at 0 hr, 3 hr, and 6 hr. A culture without addition of HMOs served as a control. A sample of the fermentation medium (blank), which constituted approximately 90% of the starting culture volume, was also analyzed.
(§2) Samples were extracted and split into equal parts for analysis on GC/MS and LC/MS/MS platforms. Agmatine ions were identified in chromatograms, and peak area was integrated for quantitative analysis.

Series [2] deals with fecal samples from breast-fed infants (intestinal flora). Briefly: Anaerobic fermentation of HMOs with fecal inocula of breast-fed infants, agmatine in supernatant by GC/MS and LC/MS/MS. The series is classed as cell-based, human. The note with it: for Increase of agmatine, HMO/blank (relative ratio of agmatine compared to the blank): breast fed infants, fermentation culture 37° C. The protocol:
as §1, §2

Series [3] concerns NMDA subclass of glutamate receptors. To be noted: cited from earlier work.
For series [4] the following is noted: mice, peripheral injection at 50 and 300 mg/kg; cited from earlier work.
The conditions of series [5]: non-human primates, peripheral injection at 50 and 300 mg/kg; cited from earlier work.
Series [6] concerns nitric oxide synthase (NOS), all isoforms. To be noted: cited from earlier work.

Where two headings read alike, the source gives them in different places. Marks after values point to notes of the source that are not given here.

Regarding `CC(=O)N[C@H]1[C@H](O[C@H]2[C@@H](O)[C@@H](CO)O[C@@H](O[C@H]3[C@H](O)[C@@H](O)C(O)O[C@@H]3CO)[C@@H]2O)O[C@H](CO)[C@@H](O[C@@H]2O[C@H](CO)[C@H](O)[C@H](O)[C@H]2O)[C@@H]1O` (mixture of isomers) [LNnT, lacto-N-neotetraose], the “agmatine relative to a blank (in words)” value in series [1] (fecal samples from formula-fed infants (FF)) and in series [2] (fecal samples from breast-fed infants (BF)) was “dramatic increases in agmatine” throughout. For the same compound, the “Increase of agmatine, HMO/blank (relative ratio of agmatine compared to the blank)” value in series [1] (0 h) is 2.12; in series [1] (3 h) it was 61.77^a; in series [1] (6 h), 75.02^a; in series [2] (0 h), 9.52^a; in series [2] (3 h), 34.4; in series [2] (6 h), 1.59.
On to `N=C(N)NCCCCN` [agmatine], for which, in series [3], the “affinity for the NMDA subclass of glutamate receptors” value is “modest affinity”. Further, the brain agmatine concentrations entry in series [4] was “significant increases in brain agmatine concentrations”. For the same compound, the brain agmatine concentrations entry in series [5] is recorded as “significant increases in brain agmatine concentrations”. Besides, in series [6], the “inhibition of NOS isoforms” value is recorded as “inhibit all isoforms of NOS” and the nitric oxide production entry is “suppress nitric oxide production”.
